Data from US20120172401A1, “BENZIMIDAZOLE DERIVATIVE AND USE AS ANGIOTENSIN II ANTAGONIST” (Takeda Pharmaceutical Company Limited, priority 2005, published 2012).
Converted amounts (≈) assume the structure as drawn. Like-named read-outs stand apart in the source and are kept apart here.

Tests used:
[1] = tested on: insulin sensitivity; test: Enhancing effect on insulin sensitivity in rat (glucose clamp technique); type: in vivo; conditions: spontaneously hypertensive rats, p.o. for 2 weeks, average glucose injection rate 50-90 min, mean±SEM
Description: 24-Week-old male spontaneously hypertensive rats (SLC: SHR/Izm, Japan SLC, Inc.) were used. The body weight, systolic blood pressure, fasting blood glucose level, plasma insulin level and plasma triglyceride level of the rats were measured, and the rats were divided into a vehicle (0.5% methylcellulose solution) administration group and compound (I) (0.12, 0.37 and 1.23 mg/kg) administration groups using them as indices. Compound (I) was suspended in 0.5% methylcellulose solution and orally administered at a volume of 2 mL/kg for 2 weeks.
The insulin sensitivity was evaluated by the glucose clamp technique. To be specific, the rats after fasting overnight were anesthetized with pentobarbital sodium (Nembutal injection, Dainippon Pharmaceutical Co. Ltd., 50 mg/kg i.p.), and catheters (SP45, Natume Seisakusho Co., Ltd.) for blood sampling, insulin (novolin R/100, Novo Nordisk Pharma Co., Ltd.) infusion and glucose (Otsuka Glucose Injection 50%, Otsuka Pharmaceutical Co., Ltd.) infusion were each placed in the right common carotid artery, left femoral vein and right femoral vein. After single intravenous injection of 25 mU/kg of insulin, high insulin state was maintained by infusion using an infusion pump (KDS100, KDS) at an injection rate of 4 mU/kg/min. In addition, glucose in an amount necessary for maintaining the normal blood glucose level was intravenously infused using a different infusion pump (KDS100, KDS). Intravenous injection of glucose was started from 10 min after the start of the injection of insulin, and the glucose injection rate was changed after blood glucose measurement performed every 5 min. The blood glucose level then was quickly measured using a simple blood glucose measurement apparatus (ACCU-CHEK Comfort, Roche diagnostics). Glucose was infused for 90 min., the average value of the glucose injection rate was calculated for 40 min (from 50 min. to 90 min. after the start of the injection) and used as an index (M value) of insulin sensitivity.
The results are shown as mean±SEM (Table 7). […]

[2] = tested on: Angiotensin II (AII)-induced vasopressor action; test: Inhibitory effect on angiotensin II (AII)-induced vasopressor action in rat; type: in vivo; conditions: male SD rats, AII 100 ng/kg i.v., p.o., mean±SEM
Description: 11-Week-old male SD rats (JCL: SD, CLEA Japan, Inc.) were anesthetized with pentobarbital (50 mg/kg, i.p.), the femoral artery and femoral vein were isolated, and a polyethylene tube filled with physiological saline containing heparin (200 U/mL) was placed therein. The catheter was subcutaneously fixed in the back of the neck. After recovery period, the rats were subjected to the test.
The arterial catheter was connected to a pressure transducer (2238, NEC San-ei Instruments) and the signals were output on a pen recorder (RECTI-HORIZ 8K, NEC San-ei Instruments) via an amplifier for blood pressure. After the vasopressor action of AII (100 ng/kg, i.v.) was stabilized, a test compound in an equimolar dose to compound A was administered. After 24 hrs, AII was administered, an increase in the blood pressure was measured, and an inhibition rate relative to the value before drug administration was calculated. All compounds were suspended in 0.5% methylcellulose and orally administered at a volume of 2 mL/kg.
The results are shown as mean±SEM (Table 6). The significance between the compound (I) administration group and other compound administration group was determined by the Student's t test (**: p<0.01, *: p<0.05).

[3] = Membrane permeability by Parallel Artificial Membrane Permeability Assay (PAMPA); type: in vitro ADME; conditions: for Papp at 3 h, 50 gmol/L: PAMPA; for permeability in comparison with compound X: in words
Description: The permeability with the artificial membrane was determined by PAMPA under the following conditions. • lipid membrane: GIT mode (pION) • measurement wavelength: 250-400 nm • incubation time: 3 hrs • incubation temperature: 25° C. • Donor: […] 50 gmol/L

[4] = Solubility in JP1, JP2 and GCDC/JP2; type: physicochemical; conditions: for solubility in comparison with compound X: in words; for solubility at 2 h: thermodynamic from solid, 37° C.
Description: About 2 mg of samples were suspended in 2 mL of JP1, JP2 and 20 mmol/L GCDC/JP2. The suspension was equilibrated at 37° C. for 2 hrs and filtered. The concentration in the solutions was determined by HPLC under the following conditions.
• Detector: UV 254 nm • Column: CAPCELLPAK C18 MG 75×4.6 mm • Mobile Phase A: 0.05 mol/L ammonium formate buffer (pH 3)/MeCN=9:1 • Mobile Phase B: 0.05 mol/L ammonium formate buffer (pH 3)/MeCN=1:9 • Gradient Program: 0→10 min 0→100% B) • 10→15 min 100% B) • 15.1→20 min 0% B) • Column Temp.: 40° C. • Flow Rate: 1 mL/min • Injection vol.: 10 gL

[5] = Heat stability of Form A crystal; type: physicochemical; conditions: in words
[6] = pH 5.5, GIT mode lipid membrane, 3 hrs, 25° C., read-out: PAMPA pH 5.5
[7] = pH 6.2, GIT mode lipid membrane, 3 hrs, 25° C., read-out: PAMPA PH 6.2
[8] = pH 1.2, simulated gastric fluid, JP1, read-out: Solubility JP1
[9] = pH 6.8, fassgf or other biorelevant, 20 mmol/L GCDC/JP2, read-out: Solubility GCDC/JP2
[10] = pH 6.8, fassgf or other biorelevant, JP2, read-out: Solubility JP2
[11] = pH 7.4, GIT mode lipid membrane, 3 hrs, 25° C., read-out: PAMPA PH 7.4

SMILES | M value ([1]; 0.12 mg/kg) | M value ([1]; 0.37 mg/kg) | M value ([1]; 1.23 mg/kg) | suppression rate at 24 hrs after administration ([2]; 0.12 mg/kg) | Papp at 3 h, 50 gmol/L [3, 6] | Papp at 3 h, 50 gmol/L [3, 7] | permeability in comparison with compound X [3] | PAMPA PH 7.4 ([3]; pH 7.4, GIT mode lipid membrane, 3 hrs, 25° C.) | solubility in comparison with compound X [4] | solubility at 2 h [4, 8] | solubility at 2 h [4, 9] | solubility at 2 h [4, 10] | suppression rate at 24 hrs after administration ([2]; 0.10 mg/kg) | Papp at 3 h, 50 gmol/L [3, 11] | stability to heat [5]
Cc1oc(=O)oc1COC(=O)c1cccc2nc(C3CC3)n(Cc3ccc(-c4ccccc4-c4noc(=O)[nH]4)cc3)c12 [Compound (I), (5-Methyl-2-oxo-1,3-dioxol-4-yl)methyl 2-cyclopropyl-1-{[2′-(5-oxo-4,5-dihydro-1,2,4-oxadiazol-3-yl)biphenyl-4-yl]methyl}-1H-benzimidazole-7-carboxylate] | 8.2 | 9.0 | 9.8 | 20.2% |  |  |  |  |  |  |  |  |  |  | 
O=C(O)c1cccc2nc(C3CC3)n(Cc3ccc(-c4ccccc4-c4noc(=O)[nH]4)cc3)c12 [Compound A, 2-cyclopropyl-1-{[2′-(5-oxo-4,5-dihydro-1,2,4-oxadiazol-3-yl)biphenyl-4-yl]methyl}-1H-benzimidazole-7-carboxylic acid] |  |  |  |  | 13 ×10⁻⁶ cm/s | 0.63 ×10⁻⁶ cm/s | less permeable | 0 ×10⁻⁶ cm/s | soluble | 130 µg/mL (≈ 287 µM) | 680 µg/mL (≈ 1500 µM) | 470 µg/mL (≈ 1040 µM) | −6.0% |  | 
COC(=O)c1cccc2nc(C3CC3)n(Cc3ccc(-c4ccccc4-c4noc(=O)[nH]4)cc3)c12 [Compound B, methyl 2-cyclopropyl-1-{[2′-(5-oxo-4,5-dihydro-1,2,4-oxadiazol-3-yl)biphenyl-4-yl]methyl}-1H-benzimidazole-7-carboxylate] |  |  |  |  | 46 ×10⁻⁶ cm/s | 20 ×10⁻⁶ cm/s | permeable |  | less soluble | 160 µg/mL (≈ 343 µM) | 27 µg/mL (≈ 57.9 µM) | 2.8 µg/mL (≈ 6 µM) | 2.6% | 8.9 ×10⁻⁶ cm/s | 
Cc1oc(=O)oc1COC(=O)c1cccc2nc(C3CC3)n(Cc3ccc(-c4ccccc4-c4noc(=O)[nH]4)cc3)c12 [Compound X, crystal of (5-methyl-2-oxo-1,3-dioxol-4-yl)methyl 2-cyclopropyl-1-{[2′-(5-oxo-4,5-dihydro-1,2,4-oxadiazol-3-yl)biphenyl-4-yl]methyl}-1H-benzimidazole-7-carboxylate] |  |  |  |  | 21 ×10⁻⁶ cm/s | 19 ×10⁻⁶ cm/s |  |  |  | 27 µg/mL (≈ 47.8 µM) | 52 µg/mL (≈ 92.1 µM) | 8.3 µg/mL (≈ 14.7 µM) |  | 9.5 ×10⁻⁶ cm/s | stable to heat
